# Paper PMC4132908, “Genome-wide annotation and functional identification of aphid GLUT-like sugar transporters” (BMC Genomics, 2014)
# Molecular target: T1, ApST4 (A. pisum sugar transporter 4) (Acyrthosiphon pisum, UniProt A0A8R2H6Y5)
# T1 sequence (A0A8R2H6Y5 64-552): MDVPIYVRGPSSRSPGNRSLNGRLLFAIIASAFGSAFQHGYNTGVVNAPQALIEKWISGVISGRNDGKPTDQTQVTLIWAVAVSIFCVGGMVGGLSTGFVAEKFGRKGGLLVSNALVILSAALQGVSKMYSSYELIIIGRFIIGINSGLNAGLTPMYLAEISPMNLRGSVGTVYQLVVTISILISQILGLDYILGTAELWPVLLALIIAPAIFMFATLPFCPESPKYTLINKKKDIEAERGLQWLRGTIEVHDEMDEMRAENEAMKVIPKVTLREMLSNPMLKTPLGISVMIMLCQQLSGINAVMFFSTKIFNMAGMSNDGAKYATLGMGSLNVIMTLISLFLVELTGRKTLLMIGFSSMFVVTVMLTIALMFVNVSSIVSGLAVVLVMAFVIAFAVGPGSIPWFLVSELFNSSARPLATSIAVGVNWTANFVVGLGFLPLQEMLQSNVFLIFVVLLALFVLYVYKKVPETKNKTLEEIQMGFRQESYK
# Test: competition with […]-fructose uptake in whole yeast cells
# Format: cell-based
# Settings: 50 mM 14C-fructose; 100 mM unlabelled competitor; pH 7.0; 30 °C; 10 min
row,SMILES,% reduction of 14C-fructose uptake at 100 mM
1,OC[C@H]1OC(O)[C@H](O)[C@@H](O)[C@H]1O (some centres unmarked) [galactose],~ 21%
2,OC[C@H]1OC(O)[C@@H](O)[C@@H](O)[C@@H]1O (some centres unmarked) [mannose],> 50%
